Source: PubChem BioAssay (NCI)
Several values for one entry are separate records, joined by “and”; a condition that tells them apart may be missing. Equal entries are not always repeated.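 Exposure lasted 48 hours, with cells grown in 96-well plates and compounds tested at five concentrations. Here, GI50 denotes the concentration required for 50% inhibition of growth. TGI: concentration producing complete growth inhibition.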

Key:
Assay in all cases: NCI tumour cell line growth inhibition, 48 h
SF-539 CNS = test system: SF-539 CNS
EKVX NSCLC = test system: EKVX NSCLC
HCT-15 colon = test system: HCT-15 colon
COLO 205 colon = test system: COLO 205 colon
RPMI-8226 leukemia = test system: RPMI-8226 leukemia
HOP-92 NSCLC = test system: HOP-92 NSCLC
HL-60(TB) leukemia = test system: HL-60(TB) leukemia
BT-549 breast = test system: BT-549 breast
PC-3 prostate = test system: PC-3 prostate
MDA-MB-231 breast = test system: MDA-MB-231 breast

| Compound | TGI (SF-539 CNS) | TGI (EKVX NSCLC) | TGI (HCT-15 colon) | TGI (COLO 205 colon) | TGI (RPMI-8226 leukemia) | TGI (HOP-92 NSCLC) | TGI (HL-60(TB) leukemia) | GI50 (BT-549 breast) | TGI (BT-549 breast) | GI50 (SF-539 CNS) | GI50 (EKVX NSCLC) | GI50 (HCT-15 colon) | GI50 (PC-3 prostate) | TGI (PC-3 prostate) | GI50 (HOP-92 NSCLC) | GI50 (HL-60(TB) leukemia) | GI50 (RPMI-8226 leukemia) | GI50 (COLO 205 colon) | GI50 (MDA-MB-231 breast) | TGI (MDA-MB-231 breast) |
| --- | --- | --- | --- | --- | --- | --- | --- | --- | --- | --- | --- | --- | --- | --- | --- | --- | --- | --- | --- | --- |
| N#CCCN(CCC#N)c1ccc(/C=C(/NC(=O)c2cc([N+](=O)[O-])ccc2Cl)C(=O)NN)cc1 | > 100 µM | > 100 µM | > 100 µM | > 100 µM | > 100 µM |  |  |  |  |  |  |  |  |  |  |  |  |  |  |  |
| NC1N=Nc2ccccc21 (configuration not stated) | > 100 µM | > 100 µM | > 100 µM | > 100 µM | > 100 µM | > 100 µM | > 100 µM |  |  |  |  |  |  |  |  |  |  |  |  |  |
| CCc1ccccc1NC(=O)C(=O)C(C#N)c1ccccc1Cl (configuration not stated) |  | > 100 µM |  | > 100 µM | > 100 µM | > 100 µM | > 100 µM |  |  |  |  |  |  |  |  |  |  |  |  |  |
| COc1ccc(Nc2nc3cc(C(F)(F)F)ccc3nc2-c2ccccc2)cc1OC | > 100 µM | 71.2 µM | > 100 µM | > 100 µM |  | 9.1 µM |  |  |  |  |  |  |  |  |  |  |  |  |  |  |
| Cc1cc(=O)[nH]c(CNC(=O)c2ccc3ccccc3c2)n1 | > 100 µM | > 100 µM | > 100 µM | > 100 µM |  | > 100 µM | > 100 µM |  |  |  |  |  |  |  |  |  |  |  |  |  |
| c1ccc2c(c1)SC(=C1Sc3ccccc3S1)S2 |  | > 100 µM | > 100 µM | > 100 µM |  | > 100 µM |  |  |  |  |  |  |  |  |  |  |  |  |  |  |
| COc1cc(-c2cc3ncccc3c3nc(OCCN(C)C)c4cccnc4c23)cc(OC)c1OC | 3.39 µM | 3.24 µM | 23.4 µM |  | 2.79 µM | 3.2 µM | 4.73 µM | 0.665 µM | 3.19 µM | 0.741 µM | 0.513 µM | 0.502 µM | 0.731 µM | > 100 µM | 1.1 µM | 1.25 µM | 0.372 µM |  |  |  |
| Cn1cc(C2=C(c3c4n(c5ccccc35)CCNC4)C(=O)NC2=O)c2ccccc21 | 14.3 µM |  | > 25 µM | > 21.8 µM | > 22.3 µM | > 25 µM | > 25 µM | 16.7 µM | > 25 µM | 5.72 µM |  | 5.71 µM | 7.02 µM | > 25 µM | 11.5 µM | 3.92 µM | 10.1 µM | 6.66 µM | 9.87 µM | > 25 µM |
| CNC(=O)c1nn(C)c2c1C(C)(C)Cc1cnc(Nc3cccc(N4CCN(C)CC4)c3)nc1-2 | 3.06 µM |  | > 40.7 µM | 1.59 µM | 1.06 µM | 1.8 µM | 6.64 µM | 2.37 µM | 13.7 µM | 0.406 µM |  | 0.186 µM | 0.189 µM | 7.24 µM | 0.164 µM | 0.596 µM | 0.192 µM | 0.239 µM |  |  |
| [O-]/N=[N+](/[O-])C1CCCCC1=[N+]1CCOCC1 (configuration not stated) |  | > 100 µM |  | > 100 µM | > 100 µM | > 100 µM | > 100 µM |  |  |  |  |  |  |  |  |  |  |  |  |  |
| COc1cc(OC)cc(Oc2cnc3cc(N)cc(N)c3n2)c1 | 43.7 µM | 46.2 µM | 45.1 µM | 37.5 µM | 53.7 µM |  | 28 µM | 17.2 µM | 39.2 µM | 21.3 µM | 18.5 µM | 18.3 µM | 24.7 µM | 56 µM |  | 5.68 µM | 24 µM | 14 µM | 6.56 µM | 21 µM |
| N/C=N/S(=O)(=O)c1ccc(NC(=O)COC(=O)c2cccc3c(=O)c4ccccc4[nH]c23)cc1 | > 100 µM | > 100 µM | > 100 µM | > 100 µM | > 100 µM |  | > 100 µM |  |  |  |  |  |  |  |  |  |  |  |  |  |
| COc1cc2c(c(O)c1Cl)C(=O)c1c(O)cc(C[C@H](C)O)cc1[C@H]2[C@H]1c2cc(C[C@H](C)O)cc(O)c2C(=O)c2c1cc(OC)c(Cl)c2O |  | 75 µM and 90.9 µM | 75 µM and > 100 µM |  | 75 µM and 74.4 µM |  |  | 2.51 µM and 14 µM | 59 µM and 55.1 µM |  |  |  |  | 75 µM and > 100 µM |  |  |  |  |  |  |
| CN1C(=O)CC2(C)c3cc(O)cc(Br)c3N(C)C12 (configuration not stated) | > 100 µM | > 100 µM | > 100 µM | > 100 µM |  | > 100 µM |  |  |  |  |  |  |  |  |  |  |  |  |  |  |
| COC(=O)Oc1nn(C(=O)OC)c(=O)c2ccccc12 | > 100 µM | > 100 µM | > 100 µM | > 100 µM | > 100 µM |  | > 100 µM |  | > 100 µM |  |  |  |  | > 100 µM |  |  |  |  |  | > 100 µM |
| CC1(C)CC(=O)C=C(/C=C/Sc2c(Cl)c(Cl)nc(Cl)c2Cl)C1 | 26.4 µM |  | 23 µM | 31.3 µM | 75.1 µM | 35.2 µM |  | 5.87 µM | 22.3 µM | 11.8 µM |  | 5.64 µM | 3.54 µM | 14.1 µM | 16.7 µM |  | 3.41 µM | 17.2 µM | 7.22 µM | 20.4 µM |
| CN1CC=C(c2cc(NC(=O)Nc3ccc(Oc4ccnc(NC(=O)C5CC5)c4)c(F)c3)cc(C(F)(F)F)c2)CC1 | 1.86 µM | 1.91 µM | 4.33 µM |  |  | 3.58 µM | 0.704 µM | 1.6 µM | 3.87 µM | 0.888 µM | 0.359 µM | 1.08 µM | 0.242 µM | 1.25 µM | 1.55 µM | 0.183 µM |  |  | 0.176 µM | 0.806 µM |
| O=C(CCC(=O)Nc1ccc(Cl)c(Cl)c1)CC(=O)c1ccc2ccccc2c1 | > 100 µM | > 100 µM | > 100 µM |  | > 100 µM | > 100 µM | > 100 µM |  |  |  |  |  |  |  |  |  |  |  |  |  |
| O=C(O)CN(c1ccccc1)S(=O)(=O)c1cccc([N+](=O)[O-])c1 | > 100 µM | > 100 µM | > 100 µM | > 100 µM | > 100 µM | > 100 µM | > 100 µM |  |  |  |  |  |  |  |  |  |  |  |  |  |
| Cc1cc(Cl)nc2ccc(Cc3ccc4nc(Cl)cc(C)c4c3)cc12 | 32 µM | > 100 µM | > 100 µM | > 100 µM | > 100 µM | > 100 µM |  |  | > 100 µM |  |  |  |  | > 100 µM |  |  |  |  |  | > 100 µM |
| O=C(COc1ccccc1Cl)N1N=C(c2ccccc2)CC1(O)c1ccccc1 (configuration not stated) | 34.2 µM |  | 33.6 µM | 33.9 µM | 32.9 µM | 42.3 µM | 30.6 µM |  |  |  |  |  |  |  |  |  |  |  |  |  |
| CCCCCCCCCCCCCC[n+]1ccccc1 | 2.6 µM |  | 13.2 µM | 2.12 µM | 1.33 µM | 0.841 µM | 0.838 µM |  |  | 1.28 µM |  | 1.9 µM | 0.204 µM | 0.774 µM | 0.144 µM | 0.262 µM | 0.303 µM | 0.614 µM | 0.771 µM | 2.52 µM |
